Assays:
Kynureninase (KYNU) = target: T1, Kynureninase (KYNU) (Homo sapiens, UniProt Q16719); assay: Jump-dilution LiP-MS, Calyculin A on non-target KYNU; assay type: binding; conditions: entire length of the experiment after 100-fold jump-dilution; FIG. 8
T1 construct: endogenous in cells; host or cells: native cellular proteome
T1 sequence (Q16719 1-465): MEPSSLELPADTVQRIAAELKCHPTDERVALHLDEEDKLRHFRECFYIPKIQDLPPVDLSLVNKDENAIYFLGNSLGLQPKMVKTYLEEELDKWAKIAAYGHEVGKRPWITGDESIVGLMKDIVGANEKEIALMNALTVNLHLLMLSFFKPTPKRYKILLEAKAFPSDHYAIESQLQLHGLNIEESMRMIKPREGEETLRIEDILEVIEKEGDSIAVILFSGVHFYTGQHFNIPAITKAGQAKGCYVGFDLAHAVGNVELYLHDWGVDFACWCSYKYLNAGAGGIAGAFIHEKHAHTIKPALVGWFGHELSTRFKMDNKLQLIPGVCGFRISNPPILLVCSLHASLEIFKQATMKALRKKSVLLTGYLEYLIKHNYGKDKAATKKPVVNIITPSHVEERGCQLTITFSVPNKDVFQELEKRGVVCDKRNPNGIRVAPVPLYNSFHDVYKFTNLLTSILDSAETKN
Protocol: (§1) Native proteomes were incubated with the ligand of interested (Staurosporine or Calyculin A)—lower panel—or with the solvent (DMSO)—upper panel. The sample treated with DMSO serves as negative control, and it is used to confirm that the observed effect is derived from the interaction of the Ligand with its Targets. The proteomes were then diluted by a factor of 100 (jump-dilution method), and aliquots with a sample of the ligand-bound proteome were extracted at distinct time points after dilution. Due to the reduction of the concentration of the Ligand in solution (as consequence to the jump-dilution), new binding events between Ligand and Target are very unlikely, and consequently it is expected that the proportion of Ligand-bound protein Target decreases over time, as the complex Ligand-Target dissociates. The samples incubated for the distinct times were then subjected to a limited proteolysis step using LiP-MS or DarkLiP-MS, and measured by mass spectrometry. In the right intensity (I) as a function of retention time (RT is given.
(§2) For both LiP-MS and DarkLiP-MS, the limited proteolysis is performed with the unspecific protease thermolysin. After incubation for a short amount of time, the reaction is stopped by addition of EDTA.
For processing of LiP-MS experiments (1), the samples are dried after stopping the reaction. […]

[1] = target: T2, phoshatase PP2A-alpha (PPP2CA) (Homo sapiens, UniProt P67775); assay: Jump-dilution LiP-MS residence-time pattern, Calyculin A on PPP2CA; assay type: binding; conditions: 0 to 60 minutes after 100-fold jump-dilution; FIG. 7
T2 construct: endogenous in cells; host or cells: native cellular proteome
Protocol: Native proteomes were incubated with the ligand of interested (Staurosporine or Calyculin A)—lower panel—or with the solvent (DMSO)—upper panel. The sample treated with DMSO serves as negative control, and it is used to confirm that the observed effect is derived from the interaction of the Ligand with its Targets. The proteomes were then diluted by a factor of 100 (jump-dilution method), and aliquots with a sample of the ligand-bound proteome were extracted at distinct time points after dilution. […] The samples incubated for the distinct times were then subjected to a limited proteolysis step using LiP-MS or DarkLiP-MS, and measured by mass spectrometry. […]
Calyculin A is a natural compound that acts as an potent and irreversible inhibitor of serine/threonine protein phosphatases. To show the application of the LiP-MS technology for the measurement of irreversible drug-residence times, the experimental workflow described in FIGS. 3, 4 and 5 was applied to the phosphatase inhibitor Calyculin A. Native cellular proteomes were treated with Calyculin A or DMSO (vehicle) in duplicates, diluted 100 fold and analyzed by LiP-MS. […]

[2] = system: CDK1, CDK2, CDK4, CDK6, CDK7 and CDK9; conditions: towards CDK1, CDK2, CDK4, CDK6, CDK7 and CDK9; cited from earlier work
[3] = target: T3, Dual specificity mitogen-activated protein kinase kinase 3 (MP2K3) (Homo sapiens, UniProt P46734); assay: Jump-dilution LiP-MS residence time, complex MP2K3-Staurosporine; assay type: binding; conditions: for Half-life: time to 50% decrease of relative peptide abundance, 4-parameter logistic fit, 100-fold jump dilution, native cellular proteome
T3 construct: endogenous in cells; host or cells: native cellular proteome
T3 sequence (P46734 1-347): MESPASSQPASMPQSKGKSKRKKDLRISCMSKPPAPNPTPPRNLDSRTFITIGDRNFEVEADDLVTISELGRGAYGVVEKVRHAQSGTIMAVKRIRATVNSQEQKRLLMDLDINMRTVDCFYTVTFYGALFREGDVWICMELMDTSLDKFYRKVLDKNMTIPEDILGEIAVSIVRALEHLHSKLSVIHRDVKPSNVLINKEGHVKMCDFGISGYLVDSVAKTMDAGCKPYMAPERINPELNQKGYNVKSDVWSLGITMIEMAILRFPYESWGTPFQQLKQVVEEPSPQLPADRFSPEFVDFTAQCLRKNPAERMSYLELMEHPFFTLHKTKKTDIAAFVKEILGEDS
Protocol: as §1, §2
For processing of LiP-MS experiments (1), the samples are dried after stopping the reaction. After re-solubilization with urea, the partially-fragmented proteome is reduced and alkylated, diluted with ammonium bicarbonate, and treated with LysC and Trypsin to generate a fully fragmented peptide sample. This peptide sample is acidified with TFA and cleaned with a C18 resin before analysis by mass spectrometry.
Staurosporine is a natural compound that mimics the biological molecule ATP and acts as a promiscuous kinase inhibitor. Due to the similarities to ATP, Staurosporine has short residence times towards its protein Targets. To show the application of the LiP-MS technology for the measurement of short drug-residence times, the experimental workflow described in FIGS. 3, 4 and 5 was applied to the promiscuous kinase inhibitor Staurosporine. Native cellular proteomes were treated with Staurosporine or DMSO (vehicle) in duplicates, diluted 100 fold and analyzed by LiP-MS. The results of Example 1 are illustrated in FIG. 6. The graphs of FIG. 6 show the average abundances (y-axis) of four different peptides Peptide 1-Peptide 4 of the kinase MP2K3 measured between 0 and 60 minutes after jump-dilution (x-axis). The peptides Peptide 1-Peptide 4 are described in the database PeptideAtlas with the accessions PAp01457867, Pap00639637, PAp02016489 and PAp00503812. The graphs show a difference in peptide abundance between Staurosporine and DMSO, which is larger at earlier time points after dilution (between 0 and 30 min). The difference in abundance between Staurosporine-treated samples and DMSO decreases has time progresses.
Accordingly to equation 1, the residence-time of Staurosporine towards MP2K3 can be determined based on the half-life of the complex MP2K3-Staurosporine. Since the half-life of the complex MP2K3-Staurosporine corresponds to the interval of time that led to a reduction of peptide abundance by 50%, we fit the values of peptide abundance to a 4-parameter logistic curve. Thereby we obtained the time that corresponded to a decrease of relative peptide abundance by 50% (Table 2). Since each peptide generates a slightly different value for the half-life of the complex due experimental variability, we calculated the median of the 4 values obtained based on the four graphs of FIG. 6.

T2 sequence (P67775 whole entry): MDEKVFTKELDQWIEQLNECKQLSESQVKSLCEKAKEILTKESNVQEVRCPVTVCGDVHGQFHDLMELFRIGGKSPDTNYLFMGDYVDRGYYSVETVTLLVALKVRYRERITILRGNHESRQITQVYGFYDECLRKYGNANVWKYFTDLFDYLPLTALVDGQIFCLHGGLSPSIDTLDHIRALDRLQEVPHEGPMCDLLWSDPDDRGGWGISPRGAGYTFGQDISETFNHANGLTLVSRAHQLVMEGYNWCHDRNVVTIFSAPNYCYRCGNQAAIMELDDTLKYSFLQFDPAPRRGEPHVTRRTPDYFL

COC[C@@H]([C@H](O)[C@H](O)C(=O)NCC[C@H](C)c1nc(/C=C/C[C@@H]2O[C@]3(C[C@@H](O)[C@@H]2C)O[C@H]([C@H](C[C@H](O)[C@H](C)[C@H](O)[C@H](C)/C=C(C)/C(C)=C/C=C/C(C)=C\C#N)OC)[C@H](OP(=O)(O)O)C3(C)C)co1)N(C)C [Calyculin A]
Binding / structural alteration of KYNU (Peptide 6 intensity vs DMSO) (Kynureninase (KYNU)): did not bind to KYNU | Structural alteration of PPP2CA (Peptide 5 abundance vs DMSO) over time after jump-dilution [1]: did not disappear over time

C[C@@H](O)[C@@H](C)Oc1nc(Nc2ccc(S(=N)(=O)C3CC3)cc2)ncc1C(F)(F)F (stereo partly drawn) [Roniclib]
IC50 values [2]: nanomolar range

CN[C@@H]1C[C@H]2O[C@@](C)([C@@H]1OC)n1c3ccccc3c3c4c(c5c6ccccc6n2c5c31)C(=O)NC4 [Staurosporine]
Structural alteration of MP2K3 (peptide abundance vs DMSO) over time after jump-dilution ([3]; 0 to 60 minutes after 100-fold jump-dilution, FIG. 6): structural alteration disappeared over time | Half-life ([3]; Peptide 1 of MP2K3): 25 min | Half-life ([3]; Peptide 2 of MP2K3): 61 min | Half-life ([3]; Peptide 3 of MP2K3): 129 min | Half-life ([3]; Peptide 4 of MP2K3): 29 min | Median half-life ([3]; median of the 4 peptide half-lives): 45 min

Reference: patent US20260086093A1, “METHODS TO DETERMINE DRUG TARGET RESIDENCE TIME AND TO SELECT BEST DRUG-TARGET CANDIDATES” (BiognoSYS AG, priority 2022, published 2026)
